Test results as given in ChEMBL document CHEMBL2073830, “A novel inhibitor of the mammalian peptide transporter PEPT1” (Biochemistry, 2001).
Non-standard residues stand in square brackets, D forms with d. Residues, ends and D or L forms follow the SMILES beside them. *: point of attachment. Cbz = O=C(OCc1ccccc1)*

Molecular target: T1, Solute carrier family 15 member 1 (Homo sapiens, UniProt P46059)
T1 sequence (P46059 whole entry): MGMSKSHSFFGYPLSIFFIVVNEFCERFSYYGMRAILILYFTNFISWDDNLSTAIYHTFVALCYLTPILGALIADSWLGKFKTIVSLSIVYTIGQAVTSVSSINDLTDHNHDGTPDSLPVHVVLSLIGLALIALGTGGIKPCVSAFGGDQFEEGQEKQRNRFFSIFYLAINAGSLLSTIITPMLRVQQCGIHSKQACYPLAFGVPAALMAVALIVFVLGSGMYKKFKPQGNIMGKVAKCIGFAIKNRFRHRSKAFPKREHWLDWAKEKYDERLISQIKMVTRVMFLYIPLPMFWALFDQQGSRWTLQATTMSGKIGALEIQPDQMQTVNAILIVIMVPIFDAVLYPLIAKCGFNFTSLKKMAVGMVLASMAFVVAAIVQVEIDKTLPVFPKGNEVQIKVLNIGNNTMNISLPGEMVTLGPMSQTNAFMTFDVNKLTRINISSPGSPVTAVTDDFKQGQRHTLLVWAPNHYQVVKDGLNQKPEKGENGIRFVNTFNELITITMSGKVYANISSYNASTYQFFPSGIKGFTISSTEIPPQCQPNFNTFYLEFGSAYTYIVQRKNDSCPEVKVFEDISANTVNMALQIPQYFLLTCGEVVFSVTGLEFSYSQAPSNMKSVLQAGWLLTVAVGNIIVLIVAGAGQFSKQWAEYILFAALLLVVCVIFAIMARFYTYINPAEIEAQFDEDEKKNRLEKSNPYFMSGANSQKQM
Test: TP_TRANSPORTER: inhibition of Gly-Sar uptake in Caco-2 cells
Assay type: functional, cell-based

Compound | Ki [µM]
NCCCC[C@H](NC(=O)OCc1ccccc1)C(=O)N1CCC[C@H]1C(=O)O (Cbz-Lys-Pro-OH) | 33
N[C@@H](CCCCNC(=O)OCc1ccc([N+](=O)[O-])cc1)C(=O)N1CCC[C@H]1C(=O)O | 19
NCCCC[C@H](N)C(=O)N1CCC[C@@H]1C(=O)O (H-Lys-[dP]-OH) | 350
